Test results taken from ChEMBL document CHEMBL3881525, “Analogs of dehydrophenylahistins and their therapeutic use” (2007).
The source made the active and inactive calls. The calls are words filed in the database; no cut-off is given here.

Experiments:
[1] = Cytotoxicity against human HT-29 cells assessed as reduction in cell viability measured after 48 hrs by resazurin dye-based fluorometric analysis relative to control; assay type: functional
HeLa [2] = assay: Effect on cell cycle progression in human HeLa cells assessed as reduction in 2N cells at 100 nM; assay type: functional, cell-based
HeLa [3] = assay: Effect on cell cycle progression in human HeLa cells assessed as increase in 4N cells at 100 nM; assay type: functional, cell-based
[4] = Drug metabolism assessed as human hepatic cytochrome P450-mediated hydroxylated metabolite P3 and P5 formation; assay type: ADME
[5] = Cytotoxicity against human OVCAR3 cells assessed as reduction in cell viability measured after 48 hrs by resazurin dye-based fluorometric analysis; assay type: functional; settings: OVCAR-3, 48 h
[6] = Cytotoxicity against human CCD-27Sk cells assessed as reduction in cell viability measured after 48 hrs by resazurin dye-based fluorometric analysis
[7] = Antiproliferative activity against taxol-sensitive human MES-SA cells […]; assay type: functional, cell-based
Tubulin (Homo sapiens) [8] = biological target: T1, Tubulin (Homo sapiens) (UniProt P68371+Q9H4B7+P0DPH7+P68366+Q13509+Q71U36+P04350+Q3ZCM7+P07437+P68363+Q9BQE3+Q6PEY2+Q13885+Q9BVA1+Q9BUF5); assay: Induction of microtubule depolymerization in HUVEC at 2 uM measured after 30 mins; assay type: cell-based
HUVEC = assay: Induction of apoptosis in HUVEC assessed as cell shrinkage; assay type: functional, cell-based; settings: Homo sapiens
[9] = Antitumor activity against human DU145 cells xenografted in nude mouse assessed as tumor growth inhibition at 7.5 mg/kg, iv administered every third day for 5 days measured on day 28 relative to control; assay type: functional; settings: DU-145, iv, read-out: TGI
MCF7 [10] = assay: Potentiation of taxotere-induced antitumor activity against human MCF7 cells xenografted in nude mouse assessed as tumor growth inhibition at 7.5 mg/kg, ip qd for 4 days measured on day 7; assay type: functional, organism-based
MDA-MB-231 = assay: Antitumor activity against human MDA-MB-231 cells xenografted in nude mouse assessed as tumor growth inhibition at 7.5 mg/kg, ip administered thrice per day for 5 days in presence of paclitaxel relative to control; assay type: functional, organism-based
[11] = Antifungal activity against Candida glabrata measured after 48 hrs by broth dilution method; assay type: functional; settings: Nakaseomyces glabratus
[12] = system: Trichophyton mentagrophytes; assay: Fungicidal activity against Trichophyton mentagrophytes isolate 1 measured after 48 hrs by broth dilution method; assay type: functional; settings: isolate 1, 48 h
Mus musculus = assay: Antivascular activity against mouse N202 tumor spheroids expressing H2B-GFP allografted in mouse assessed as inhibition of tumor-induced central vasculature at 10 mg/kg, iv administered on day 13 as infusion for 5 mins measured on day 15 by fluorescence video microscopy; assay type: functional, organism-based
[13] = Toxicity in mouse allografted with mouse N202 tumor spheroids expressing H2B-GFP at 10 mg/kg, iv administered on day 13 as infusion for 5 mins; assay type: organism-based; settings: in vivo
[14] = Toxicity in mouse allografted with mouse N202 tumor spheroids expressing H2B-GFP assessed as effect on tumor surrounding vasculature in the dorsal skin fold at 5 mg/kg, iv administered on day 12 as infusion for 2 mins measured on day 15; assay type: organism-based; settings: in vivo
Rattus norvegicus [15] = assay: Effect on blood flow in rat muscle at 15 mg/kg, ip measured after 1 hr by [125I]iodoantipyrine based method relative to vehicle control; assay type: ADME, organism-based; settings: in vivo
Rattus norvegicus [16] = assay: Effect on blood flow in rat heart at 15 mg/kg, ip measured after 1 hr by [125I]iodoantipyrine based method relative to vehicle control; assay type: ADME, organism-based; settings: in vivo
Rattus norvegicus [17] = assay: Reduction in blood flow in rat heart at 15 mg/kg, ip measured after 24 hrs by [125I]iodoantipyrine based method relative to vehicle control; assay type: ADME, organism-based; settings: in vivo
Rattus norvegicus [18] = assay: Reduction in blood flow in rat spleen at 15 mg/kg, ip measured after 24 hrs by [125I]iodoantipyrine based method relative to vehicle control; assay type: ADME, organism-based; settings: in vivo
Rattus norvegicus [19] = assay: Reduction in blood flow in rat gut at 15 mg/kg, ip measured after 24 hrs by [125I]iodoantipyrine based method relative to vehicle control; assay type: ADME, organism-based; settings: in vivo
Rattus norvegicus [20] = assay: Increase in blood flow in rat skeletal muscle at 15 mg/kg, ip measured after 24 hrs by [125I]iodoantipyrine based method relative to vehicle control; assay type: ADME, organism-based; settings: in vivo
P22 = assay: Induction of necrosis in rat P22 cells implanted in rat compound administered intraperitoneally measured after 24 hrs post dose; assay type: functional, cell-based
MCF7 [21] = assay: Antimitotic activity in human MCF7 cells assessed as mitotic index measured after 20 hrs by DAPI-staining based fluorescence microscopic analysis; assay type: functional, cell-based
[22] = Antimitotic activity in human MCF7 cells assessed as tubulin foci formation at mitotic block IC50 measured after 20 hrs by immunofluorescence analysis relative to control; assay type: functional
MCF7 [23] = assay: Antimitotic activity in human MCF7 cells assessed as decrease in microtubule polymer formation measured after 20 hrs by immunofluorescence analysis relative to control; assay type: functional, cell-based
Tubulin (Homo sapiens) [24] = biological target: T1, Tubulin (Homo sapiens); assay: Induction of microtubule instability in human MCF7 cells assessed as mean shortening rate at IC25 for mitotic block measured after 20 hrs by immunofluorescence analysis; assay type: cell-based
Tubulin (Homo sapiens) [25] = biological target: T1, Tubulin (Homo sapiens); assay: Induction of microtubule instability in human MCF7 cells assessed as time spent for shortening at IC25 for mitotic block measured after 20 hrs by immunofluorescence analysis; assay type: cell-based
Tubulin (Homo sapiens) [26] = biological target: T1, Tubulin (Homo sapiens); assay: Induction of microtubule instability in human MCF7 cells assessed as time spent for attenuation at IC25 for mitotic block measured after 20 hrs by immunofluorescence analysis; assay type: cell-based
Tubulin (Homo sapiens) [27] = biological target: T1, Tubulin (Homo sapiens); assay: Induction of microtubule instability in human MCF7 cells assessed as mean growth rate at IC50 for mitotic block measured after 20 hrs by immunofluorescence analysis; assay type: cell-based
Tubulin (Homo sapiens) [28] = biological target: T1, Tubulin (Homo sapiens); assay: Induction of microtubule instability in human MCF7 cells assessed as mean shortening rate at IC50 for mitotic block measured after 20 hrs by immunofluorescence analysis; assay type: cell-based
Tubulin (Homo sapiens) [29] = biological target: T1, Tubulin (Homo sapiens); assay: Induction of microtubule dynamic instability in human MCF7 cells at IC50 for mitotic block measured after 20 hrs by immunofluorescence analysis; assay type: cell-based
Tubulin (Homo sapiens) [30] = biological target: T1, Tubulin (Homo sapiens); assay: Time required for induction of microtubule dynamic instability in human MCF7 cells at IC25 for mitotic block measured after 20 hrs by immunofluorescence analysis; assay type: cell-based
[31] = Antitumor activity against human A549 cells xenografted in nude mouse assessed as tumor growth inhibition at 7.5 mg/kg, ip qd administered every third day for 5 days in presence of CPT-11 relative to control; assay type: functional; settings: 120 h, read-out: TGI
[32] = biological target: Cyclin-dependent kinase 1/cyclin B1 (Homo sapiens) (UniProt P06493+P14635); settings: 10 uM
Cyclin-dependent kinase 1/cyclin B1 (Homo sapiens), sequence (P06493 whole entry, looked up): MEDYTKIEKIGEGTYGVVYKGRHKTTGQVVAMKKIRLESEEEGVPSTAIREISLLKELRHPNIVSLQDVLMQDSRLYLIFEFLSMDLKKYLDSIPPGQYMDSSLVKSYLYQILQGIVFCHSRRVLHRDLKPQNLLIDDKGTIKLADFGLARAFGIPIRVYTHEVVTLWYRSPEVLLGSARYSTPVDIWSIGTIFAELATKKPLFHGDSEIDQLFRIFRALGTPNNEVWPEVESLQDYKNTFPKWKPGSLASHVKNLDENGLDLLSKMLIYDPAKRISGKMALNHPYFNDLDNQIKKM
Cyclin-dependent kinase 1/cyclin B1 (Homo sapiens), sequence (P14635 whole entry, looked up): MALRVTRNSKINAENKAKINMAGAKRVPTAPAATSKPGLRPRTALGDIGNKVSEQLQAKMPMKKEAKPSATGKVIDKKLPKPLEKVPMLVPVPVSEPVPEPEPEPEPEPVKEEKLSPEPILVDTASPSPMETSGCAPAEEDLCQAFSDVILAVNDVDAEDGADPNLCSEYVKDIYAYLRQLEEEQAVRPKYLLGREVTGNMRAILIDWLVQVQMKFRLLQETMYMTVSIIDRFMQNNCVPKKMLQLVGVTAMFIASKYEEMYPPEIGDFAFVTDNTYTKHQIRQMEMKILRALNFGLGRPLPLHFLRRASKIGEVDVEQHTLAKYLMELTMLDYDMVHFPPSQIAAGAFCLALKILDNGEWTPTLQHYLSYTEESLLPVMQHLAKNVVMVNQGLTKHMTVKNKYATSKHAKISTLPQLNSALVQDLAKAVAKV
Description: Inhibition of human CDK1/human cyclinB at 10 uM in presence of ATP

[33] = biological target: RAF proto-oncogene serine/threonine-protein kinase (Homo sapiens) (UniProt P04049); settings: 10 uM
RAF proto-oncogene serine/threonine-protein kinase (Homo sapiens), sequence (P04049 whole entry): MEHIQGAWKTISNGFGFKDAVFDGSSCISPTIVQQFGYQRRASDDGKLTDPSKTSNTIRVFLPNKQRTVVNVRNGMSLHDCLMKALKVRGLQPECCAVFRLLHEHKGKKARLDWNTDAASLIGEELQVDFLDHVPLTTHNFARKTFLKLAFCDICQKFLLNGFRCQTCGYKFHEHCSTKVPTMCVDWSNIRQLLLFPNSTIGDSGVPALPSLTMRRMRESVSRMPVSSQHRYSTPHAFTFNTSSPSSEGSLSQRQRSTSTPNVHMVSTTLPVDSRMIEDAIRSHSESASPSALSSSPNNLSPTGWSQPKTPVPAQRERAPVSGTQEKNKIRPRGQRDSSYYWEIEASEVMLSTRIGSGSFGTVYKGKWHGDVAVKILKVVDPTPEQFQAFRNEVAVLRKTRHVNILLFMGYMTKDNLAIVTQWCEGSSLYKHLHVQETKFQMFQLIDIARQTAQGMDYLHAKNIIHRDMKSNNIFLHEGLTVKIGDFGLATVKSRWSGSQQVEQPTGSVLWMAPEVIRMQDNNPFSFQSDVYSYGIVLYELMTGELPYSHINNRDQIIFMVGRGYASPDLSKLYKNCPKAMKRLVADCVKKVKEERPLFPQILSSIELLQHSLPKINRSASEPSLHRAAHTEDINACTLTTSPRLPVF
Description: Inhibition of human c-RAF at 10 uM in presence of ATP

[34] = biological target: Tyrosine-protein kinase Lyn (Mus musculus) (UniProt P25911); settings: 10 uM
Tyrosine-protein kinase Lyn (Mus musculus), sequence (P25911 whole entry): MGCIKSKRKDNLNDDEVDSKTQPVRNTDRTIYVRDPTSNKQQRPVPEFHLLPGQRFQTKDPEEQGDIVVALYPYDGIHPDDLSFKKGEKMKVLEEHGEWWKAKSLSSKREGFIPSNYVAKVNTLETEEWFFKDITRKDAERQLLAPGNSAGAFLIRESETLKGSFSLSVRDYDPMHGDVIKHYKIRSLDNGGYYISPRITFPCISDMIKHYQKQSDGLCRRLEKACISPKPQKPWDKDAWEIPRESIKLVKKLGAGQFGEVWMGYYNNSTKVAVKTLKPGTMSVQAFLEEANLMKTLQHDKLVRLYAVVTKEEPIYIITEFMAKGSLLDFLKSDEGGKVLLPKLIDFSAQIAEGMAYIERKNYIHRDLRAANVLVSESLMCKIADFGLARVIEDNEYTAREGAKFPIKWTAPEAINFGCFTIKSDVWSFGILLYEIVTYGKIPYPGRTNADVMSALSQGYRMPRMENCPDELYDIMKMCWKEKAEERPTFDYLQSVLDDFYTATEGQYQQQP
Description: Inhibition of mouse Lyn at 10 uM in presence of ATP

Tubulin (Bos taurus) = Tubulin (Bos taurus) (UniProt Q6B856+Q862L2+Q862F3); settings: 1.25 to 5 uM

CC(C)(C)c1[nH]cnc1/C=c1\[nH]c(=O)/c(=C/c2ccccc2)[nH]c1=O [PLINABULIN]
inhibition (INH) [1]: 82.5 - 88% | Activity (HeLa [2]): Active | Activity (HeLa [3]): Active | Drug metabolism [4]: Metabolite_Detected | EC50 [5]: > 20000 nM | EC50 [6]: 9.2 nM | EC50 [7]: 8.5 to 34 nM | Activity (Tubulin (Homo sapiens) [8]): Active | Activity (HUVEC): Active | inhibition in vivo at 7.5 mg/kg [9]: 92.5% | TGI (MCF7 [10]): Active | TGI (MDA-MB-231): Active | MIC [11]: > 32 µg/mL | MFC [12]: > 16 µg/mL | inhibition (Mus musculus): Active | Activity [13]: Non-Toxic | Activity [14]: Non-Toxic | Activity (Rattus norvegicus [15]): Non-Toxic | Activity (Rattus norvegicus [16]): Non-Toxic | Activity (Rattus norvegicus [17]): Toxic | Activity (Rattus norvegicus [18]): Toxic | Activity (Rattus norvegicus [19]): Toxic | Activity (Rattus norvegicus [20]): Toxic | Activity (P22): Dose-dependent effect | inhibition (MCF7 [21]): Dose-dependent effect | Activity [22]: 73% | Activity (MCF7 [23]): Dose-dependent effect | Activity (Tubulin (Homo sapiens) [24]): 31.9 um/min | Activity (Tubulin (Homo sapiens) [25]): 20.5% | TIME (Tubulin (Homo sapiens) [25]): 0.00333 h | Activity (Tubulin (Homo sapiens) [26]): 49.8% | TIME (Tubulin (Homo sapiens) [26]): 0.0122 h | Activity (Tubulin (Homo sapiens) [27]): 10.6 um/min | Activity (Tubulin (Homo sapiens) [28]): 34.1 um/min | Activity (Tubulin (Homo sapiens) [29]): 10.6 um/min | TIME (Tubulin (Homo sapiens) [30]): 0.728 h | inhibition in vivo at 7.5 mg/kg [31]: 74% | inhibition [32]: > 50% | inhibition [33]: > 50% | inhibition [34]: > 50% | inhibition (Tubulin (Bos taurus)): Active
